What was measured:
[1] = system: coq null mutants (Q-less yeast); conditions: for protection in the yeast model: compared with D4-linolenic acid
Protocol: FIG. 3. […] Yeast coq3, coq7 and coq9 null mutants were prepared in the W303 yeast genetic background (WT). Yeast strains were grown in YPD medium (1% Bacto-yeast extract, 2% Bacto-peptone, 2% dextrose) and harvested while in log phase growth (OD600nm=0.1-1.0). Cells were washed twice with sterile water and resuspended in phosphate buffer (0.10 M sodium phosphate, pH 6.2, 0.2% dextrose) to an OD600nm=0.2. Samples were removed and 1:5 serial dilutions starting at 0.20 OD/ml were plated on YPD plate medium, to provide a zero time untreated control (shown in top left panel). The designated fatty acids were added to 200 uM final concentration to 20 ml of yeast in phosphate buffer. At 2 h, 4 h, and 16 h samples were removed, 1:5 serial dilutions prepared, and spotted onto YPD plate medium. Pictures were taken after 2 days of growth at 30° C.
FIG. 4. […] The fatty acid sensitive assay was performed as described in FIG. 6-1, except that 100 ul aliquots were removed at 1, 2, and 4 h and, following dilution, spread onto YPD plates. Pictures were taken after 2 to 2.5 days, and the number of colonies counted. Yeast strains include Wild type (circles), atp2 (triangles), or coq3 (squares); Fatty acid treatments include oleic C18:1 (solid line), linolenic, C18:3, n-3 (dashed line) or 11,11,14,14-D4-linolenic, C18:3, n-3, (dotted line).
Q-less yeast (coq mutants) provide an ideal system to assess in vivo autoxidation of fatty acids. Coenzyme Q (ubiquinone or Q) serves as a small lipophilic antioxidant as well as an electron shuttle in the respiratory chain of the mitochondrial inner membrane. Ten S. cerevisiae genes (COQ1-COQ10) are required for coenzyme Q biosynthesis and function, and the deletion of any results in respiratory deficiency (Tran U C, Clarke C F. Mitochondrion 2007; 75,S62).
A plate dilution assay can be used to assess PUFA sensitivity. This assay can be performed by spotting serial five-fold dilutions of aliquots onto YPD plate media (FIG. 3). The sensitivity of the different strains can be observed by visual inspection of the density of cells in each spot.

WT (W303) yeast = conditions: 200 μM, 4 h incubation
Protocol: Uptake of exogenously supplied fatty acids by yeast. WT (W303) yeast were harvested at log phase and incubated in the presence of 200 μM of the designated fatty acid for either 0 or 4 h.
Chromatograms of the yeast extracts subjected to GC-MS analyses. The different traces represent the 0 and 4 h incubations, respectively. The peak area of Each FAME (C18:1, C18:3 and D4-linolenic) was divided by the peak area of the C17:0 standard, quantified with a calibration curve.
Wild-type yeast were harvested during log phase growth and incubated in the presence of exogenously added fatty acid (for 0 or 4 h) in the presence of phosphate buffer plus 0.20% dextrose, as described for the fatty acid sensitivity assay. Cells were harvested, washed twice with 10 ml sterile water, and the yeast cell pellets were then processed by alkaline methanolysis as described above. The fatty acids are detected as methylesters (FAMEs) following GC-MS with C17:0 added as an internal standard (FIG. 6). The amounts of 18:3 and D4 detected after 4 h incubation were extrapolated from the calibration curve.

[2] = mouse, in vivo; cited from earlier work
[3] = system: coq null mutants (Q-less yeast); conditions: cited from earlier work; for sensitivity of Q-less yeast to fatty acid treatment: compared with wild-type parental strain
[4] = system: wild-type (strain W303-1B) cells; conditions: four hour treatment; cited from earlier work

[2H]C([2H])(/C=C\C/C=C\CC)C/C=C\CCCCCCC(=O)O [11, 11-D2-linolenic acid, 11,11-Dideutero-cis,cis,cis-octadeca-8,12,15-trienoic acid]
protection in the yeast model [1]: comparable protection

[2H]C([2H])(/C=C\CC)/C=C\CC/C=C\CCCCCCC(=O)O [14, 14-D2-linolenic acid, 14,14-Dideutero-cis,cis,cis-octadeca-8,12,15-trienoic acid]
protection in the yeast model [1]: comparable protection

[2H]C([2H])(/C=C\CC)/C=C\C([2H])([2H])/C=C\CCCCCCCC(=O)O [D4-linolenic acid, 11,11,14,14-Tetradeutero-cis,cis,cis-9,12,15-Octadecatrienoic acid]
incorporation of exogenously added fatty acid by yeast (WT (W303) yeast): avidly incorporate
viability of cells compared with oleic acid treatment ([1]; quantitative colony counting): similar

CCCCC/C=C\C/C=C\CCCCCCCC(=O)O [LA, (9Z,12Z)-9,12-Octadecadienoic acid]
time at which higher-order PUFA concentration peaks in brain [2]: ≤ 8 h

CCCCC/C=C\C/C=C\C/C=C\C/C=C\CCCC(=O)O [arachidonic acid]
sensitivity of Q-less yeast to fatty acid treatment [3]: hypersensitive

CC/C=C\C/C=C\C/C=C\CCCCCCCC(=O)O [linolenic acid, (9Z,12Z,15Z)-9,12,15-Octadecatrienoic acid]
viable Q-less (coq2, coq3, and coq5) yeast mutants ([3]; following a four hour treatment): Less than 1%
time at which higher-order PUFA concentration peaks in brain [2]: ≤ 8 h
incorporation of exogenously added fatty acid by yeast (WT (W303) yeast): avidly incorporate
wild-type cells remaining viable [4]: 70%
viability / cell killing of coq mutants ([1]; 200 uM fatty acid, plate dilution assay): dramatic loss of viability
reduction of viability of the coq mutants ([1]; quantitative colony counting, treatment for 4 h): more than 100 fold

CCCCCCCC/C=C\CCCCCCCC(=O)O [oleic acid]
sensitivity of Q-less yeast to fatty acid treatment [3]: behave the same as the wild-type parental strain
